Assay: Fluorescent studies (absorption and emission spectra) in DMSO
Format: physicochemical
Conditions: concentration 1×10^−5 M; for maximum absorption wavelength (λabs) / maximum emission wavelength (λems): FIG. 1
From the text: FIG. 1 represents absorption and emission spectra of (a) coumarin-UpyFlAA (6) and (b) hydroquinone-UPy-FlAA(10), in accordance with an implementation of the present disclosure.

SMILES | fluorescence (relative fluorescence intensity) | maximum absorption wavelength (λabs) | maximum emission wavelength (λems)
CCN(CC)c1ccc2cc(-c3cc(=O)[nH]c(NC(=O)NCCCC[C@H](NC(=O)OC(C)(C)C)C(=O)O)n3)c(=O)oc2c1 [Compound 6, N2-(tert-butoxycarbonyl)-N6-((4-(7-(diethylamino)-2-oxo-2H-chromen-3-yl)-6-oxo-1,6-dihydropyrimidin-2-yl)carbamoyl)lysine] | high level of fluorescence | 437 nm | 487 nm
COc1ccc(OC)c(-c2cc(=O)nc(NC(=O)NCCCC[C@H](NC(=O)OC(C)(C)C)C(=O)O)[nH]2)c1 [Compound 10, N2-(tert-butoxycarbonyl)-N6-((6-(2,5-dimethoxyphenyl)-4-oxo-1,4-dihydropyrimidin-2-yl)carbamoyl)lysine] | high level of fluorescence | 310 nm | 421 nm

— US20260265230A1, “FLUORESCENT AND SELF-ASSEMBLING UREIDOPYRIMIDINONE CONJUGATES AND PREPARATION THEREOF” (COUNCIL OF SCIENTIFIC AND INDUSTRIAL RESEARCH AN INDIAN …, priority 2022, published 2026)
